Data published in the kinase profiling compilation of Christmann-Franck et al. (2016).

What was measured:
Assay in all cases: KINOMEscan competition binding
Settings in all cases: compound 10.0 µM
WNK1 (human) = WNK1 (human) (UniProt Q9H4A3)
RPS6KA3 KD2 (human) = RPS6KA3 KD2 (human) (UniProt P51812)
[1] = tested on: ALK (human), Q9UM73 [C1156Y]
NEK10 (human) = NEK10 (human) (UniProt Q6ZWH5)
[2] = tested on: ALK (human), Q9UM73 [L1196M]

WNK1 (human), sequence (Q9H4A3 whole entry, looked up): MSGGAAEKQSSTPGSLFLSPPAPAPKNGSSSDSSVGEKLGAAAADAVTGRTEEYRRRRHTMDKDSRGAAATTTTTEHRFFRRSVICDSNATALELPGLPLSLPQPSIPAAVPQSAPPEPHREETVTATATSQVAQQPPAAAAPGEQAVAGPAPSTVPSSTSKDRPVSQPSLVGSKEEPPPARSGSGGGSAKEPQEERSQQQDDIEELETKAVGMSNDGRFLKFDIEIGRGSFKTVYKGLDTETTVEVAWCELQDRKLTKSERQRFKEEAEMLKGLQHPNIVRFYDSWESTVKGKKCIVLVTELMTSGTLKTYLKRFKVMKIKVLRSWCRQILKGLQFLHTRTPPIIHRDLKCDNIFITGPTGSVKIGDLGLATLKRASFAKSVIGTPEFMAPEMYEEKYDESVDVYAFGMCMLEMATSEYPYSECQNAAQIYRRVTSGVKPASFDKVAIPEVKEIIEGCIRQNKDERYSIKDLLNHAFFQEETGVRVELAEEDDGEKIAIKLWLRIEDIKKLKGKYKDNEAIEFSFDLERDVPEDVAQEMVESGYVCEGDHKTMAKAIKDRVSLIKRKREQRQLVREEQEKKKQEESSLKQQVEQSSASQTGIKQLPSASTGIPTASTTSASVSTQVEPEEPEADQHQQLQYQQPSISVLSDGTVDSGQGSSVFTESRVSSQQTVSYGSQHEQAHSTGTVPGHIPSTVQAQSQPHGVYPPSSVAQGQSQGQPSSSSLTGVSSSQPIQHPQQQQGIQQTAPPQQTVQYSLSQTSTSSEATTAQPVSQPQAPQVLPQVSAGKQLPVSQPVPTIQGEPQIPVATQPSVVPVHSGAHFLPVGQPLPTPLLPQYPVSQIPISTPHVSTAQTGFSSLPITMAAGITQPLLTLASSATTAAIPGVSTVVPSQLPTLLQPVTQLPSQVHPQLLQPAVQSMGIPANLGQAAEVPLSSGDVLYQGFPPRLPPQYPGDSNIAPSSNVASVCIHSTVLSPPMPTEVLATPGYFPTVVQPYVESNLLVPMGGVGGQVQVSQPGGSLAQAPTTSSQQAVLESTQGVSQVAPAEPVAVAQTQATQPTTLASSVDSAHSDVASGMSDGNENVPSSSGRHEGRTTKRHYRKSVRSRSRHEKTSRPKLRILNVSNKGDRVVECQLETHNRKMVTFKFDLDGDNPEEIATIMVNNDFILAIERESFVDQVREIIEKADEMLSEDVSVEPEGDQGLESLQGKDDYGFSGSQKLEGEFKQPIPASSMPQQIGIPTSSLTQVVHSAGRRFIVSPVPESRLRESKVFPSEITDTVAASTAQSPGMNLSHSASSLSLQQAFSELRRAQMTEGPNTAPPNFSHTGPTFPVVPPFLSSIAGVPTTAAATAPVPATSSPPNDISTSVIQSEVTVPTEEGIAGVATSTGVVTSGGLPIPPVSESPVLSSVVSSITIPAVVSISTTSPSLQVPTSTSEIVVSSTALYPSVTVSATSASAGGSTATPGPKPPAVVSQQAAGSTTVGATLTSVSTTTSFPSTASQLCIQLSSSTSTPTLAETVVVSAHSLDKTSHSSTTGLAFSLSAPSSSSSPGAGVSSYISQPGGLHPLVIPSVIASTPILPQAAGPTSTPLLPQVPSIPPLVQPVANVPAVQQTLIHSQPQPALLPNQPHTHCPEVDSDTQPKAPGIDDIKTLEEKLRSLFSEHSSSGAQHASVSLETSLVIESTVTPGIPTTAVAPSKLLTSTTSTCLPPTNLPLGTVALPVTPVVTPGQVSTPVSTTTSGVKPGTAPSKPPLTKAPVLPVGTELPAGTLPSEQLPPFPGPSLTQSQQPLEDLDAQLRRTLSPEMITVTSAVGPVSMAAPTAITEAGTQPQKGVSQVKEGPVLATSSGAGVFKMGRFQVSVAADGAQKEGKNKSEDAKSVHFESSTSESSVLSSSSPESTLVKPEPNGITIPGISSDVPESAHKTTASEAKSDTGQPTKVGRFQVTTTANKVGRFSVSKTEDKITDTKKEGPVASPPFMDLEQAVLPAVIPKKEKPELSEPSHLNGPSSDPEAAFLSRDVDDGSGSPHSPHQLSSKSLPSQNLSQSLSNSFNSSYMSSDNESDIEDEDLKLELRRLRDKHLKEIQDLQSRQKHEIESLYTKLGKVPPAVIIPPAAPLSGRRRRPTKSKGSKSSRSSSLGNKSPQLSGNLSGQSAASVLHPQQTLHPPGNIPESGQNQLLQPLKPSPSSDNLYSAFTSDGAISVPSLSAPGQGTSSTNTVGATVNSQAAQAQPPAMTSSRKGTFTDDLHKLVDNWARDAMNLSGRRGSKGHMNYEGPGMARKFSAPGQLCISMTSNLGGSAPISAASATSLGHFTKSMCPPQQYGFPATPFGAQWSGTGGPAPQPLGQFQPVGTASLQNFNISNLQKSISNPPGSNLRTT
RPS6KA3 KD2 (human), sequence (P51812 whole entry, looked up): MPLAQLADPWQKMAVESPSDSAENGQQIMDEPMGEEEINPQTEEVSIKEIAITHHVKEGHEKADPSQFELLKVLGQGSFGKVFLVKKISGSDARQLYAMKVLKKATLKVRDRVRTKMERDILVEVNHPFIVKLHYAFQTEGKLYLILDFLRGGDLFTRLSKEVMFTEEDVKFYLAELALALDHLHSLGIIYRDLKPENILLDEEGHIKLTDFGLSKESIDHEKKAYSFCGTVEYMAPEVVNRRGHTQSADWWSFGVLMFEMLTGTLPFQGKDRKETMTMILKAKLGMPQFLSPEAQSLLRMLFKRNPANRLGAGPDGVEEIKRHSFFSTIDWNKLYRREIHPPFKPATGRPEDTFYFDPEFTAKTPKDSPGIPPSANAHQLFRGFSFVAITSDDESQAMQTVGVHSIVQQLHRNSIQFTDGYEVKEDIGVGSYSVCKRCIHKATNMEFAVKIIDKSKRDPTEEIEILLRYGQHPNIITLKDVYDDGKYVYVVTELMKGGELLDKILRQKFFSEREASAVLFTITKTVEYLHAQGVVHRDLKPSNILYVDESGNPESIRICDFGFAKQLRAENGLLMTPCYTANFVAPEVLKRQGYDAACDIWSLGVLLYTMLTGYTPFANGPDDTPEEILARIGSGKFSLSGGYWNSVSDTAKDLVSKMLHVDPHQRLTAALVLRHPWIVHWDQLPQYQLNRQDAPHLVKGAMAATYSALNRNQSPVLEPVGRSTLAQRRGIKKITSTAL
NEK10 (human), sequence (Q6ZWH5 whole entry, looked up): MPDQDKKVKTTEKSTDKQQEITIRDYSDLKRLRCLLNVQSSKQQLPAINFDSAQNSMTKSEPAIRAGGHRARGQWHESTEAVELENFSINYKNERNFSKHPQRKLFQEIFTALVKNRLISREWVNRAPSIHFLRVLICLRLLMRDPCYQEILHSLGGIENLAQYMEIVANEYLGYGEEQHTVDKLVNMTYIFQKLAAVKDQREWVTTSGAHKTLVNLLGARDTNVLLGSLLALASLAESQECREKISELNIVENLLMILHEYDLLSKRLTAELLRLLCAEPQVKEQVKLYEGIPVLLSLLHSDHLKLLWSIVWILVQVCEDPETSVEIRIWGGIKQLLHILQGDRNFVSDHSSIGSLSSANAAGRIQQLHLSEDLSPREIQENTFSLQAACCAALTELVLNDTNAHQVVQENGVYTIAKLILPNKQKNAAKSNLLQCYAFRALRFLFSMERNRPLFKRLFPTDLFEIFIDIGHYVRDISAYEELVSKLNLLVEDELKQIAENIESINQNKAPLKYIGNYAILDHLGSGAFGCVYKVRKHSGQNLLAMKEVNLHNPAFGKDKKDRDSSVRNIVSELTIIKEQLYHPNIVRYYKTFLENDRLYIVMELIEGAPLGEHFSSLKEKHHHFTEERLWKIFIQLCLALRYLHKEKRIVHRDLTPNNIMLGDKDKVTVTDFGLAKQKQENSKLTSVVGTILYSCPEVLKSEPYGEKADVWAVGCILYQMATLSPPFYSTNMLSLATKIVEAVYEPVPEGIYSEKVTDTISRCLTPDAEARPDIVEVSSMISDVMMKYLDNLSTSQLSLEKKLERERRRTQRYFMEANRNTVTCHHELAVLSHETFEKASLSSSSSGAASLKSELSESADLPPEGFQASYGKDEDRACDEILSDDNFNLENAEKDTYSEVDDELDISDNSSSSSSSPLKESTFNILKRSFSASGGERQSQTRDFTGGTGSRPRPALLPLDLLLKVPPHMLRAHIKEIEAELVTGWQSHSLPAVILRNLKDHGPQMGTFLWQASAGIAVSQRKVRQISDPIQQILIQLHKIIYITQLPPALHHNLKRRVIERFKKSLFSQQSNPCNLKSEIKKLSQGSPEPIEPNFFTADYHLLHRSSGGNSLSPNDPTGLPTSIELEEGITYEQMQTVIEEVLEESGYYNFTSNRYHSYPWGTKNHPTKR

SMILES | kinase still bound, per cent of control (WNK1 (human)) | kinase still bound, per cent of control (RPS6KA3 KD2 (human)) | kinase still bound, per cent of control [1] | kinase still bound, per cent of control (NEK10 (human)) | kinase still bound, per cent of control [2]
N#CCNC(=O)c1ccc(-c2ccnc(Nc3ccc(N4CCOCC4)cc3)n2)cc1 | 75% | 100% |  |  | 
O=C1NC(=O)/C(=C/c2ccc3nccc(-c4ccncc4)c3c2)S1 | 57% | 70% | 42% | 0% | 45%
